Measured values taken from paper PMC6328587 (Nature Communications, 2019).

Columns and labels:
p38α = molecular target: T1, p38α (Homo sapiens, UniProt Q16539); test: PROTAC washout assay, p38α; assay type: cell-based; conditions: 250 nM PROTAC for 24 h, then re-plated in fresh medium
T1 construct: SJFα PROTAC (13-atom linker, amide attachment) selectively degrades p38α; endogenous in cells; host or cells: MDA-MB-231
Method: (§1) MDA-MB-231 cells were plated at 1.5 × 10^5 cells per well in a six-well dish and allowed to adhere overnight. On the following day, all cells were treated with either vehicle (DMSO) or PROTAC (250 nM). After 24 h, cells were either harvested or washed with 1X PBS, trypsinized, and re-plated onto new six-well dishes in fresh RPMI-1640 (1 × ) media without additional compound. For these washout conditions, cells were collected every 24 h until final harvest (72 h washout).

FLAG-p38α = molecular target: T2, FLAG-p38α (Homo sapiens, UniProt Q16539); test: Ubiquitination assay, FLAG-p38α and HA-Ub in HeLa cells; assay type: cell-based; conditions: 500 nM PROTAC, 1 h
T2 construct: expressed in transfected cells; host or cells: HeLa
Method: HeLa cells (2 × 10^6) were seeded into 10 cm dishes and allowed to adhere overnight. On the following day, cells were transfected with 3 µg pcDNA5-FLAG-p38α or pcDNA5-FLAG-p38δ and 1 µg pRK5-HA-Ubiquitin-WT (Addgene plasmid #17608) in Opti-MEM media using Lipofectamine 2000 (Invitrogen). After 6 h, Opti-MEM media were replaced with DMEM (1 × ) and cells were grown for an additional 24 h. After this time, cells were treated with indicated concentrations of either vehicle (DMSO) or PROTAC for the indicated amount of time at 37 °C. Cells were then placed on ice, rinsed twice with ice-cold 1X PBS and lysed in 500 µL modified 1X RIPA buffer (25 mM Tris-HCl pH 7.6, 150 mM NaCl, 1% NP-40, 1% sodium deoxycholate, 0.1% SDS) containing 5 mM 1,10-phenanthroline monohydrate, 10 mM N-ethylmaleimide, 20 µM PR-619, and 1X protease inhibitor cocktail (Roche). Lysates were spun down at 14,000 × g at 4 °C for 20 min and protein content was measured by Pierce BCA Protein Assay (ThermoFisher Scientific). […] Immunoprecipitated protein was eluted off of the beads by heating at 95 °C for 5 min and the supernatant was run on an SDS-PAGE gel and evaluated for the presence of immunoprecipitated FLAG-tagged proteins (anti-FLAG M2, Sigma #F1804), as well as ubiquitinated FLAG-tagged proteins (anti-HA-tag (6E2), CST #2367). […]

p38δ [1] = molecular target: T3, p38δ (Homo sapiens, UniProt O15264); test: CETSA in MDA-MB-231 cell lysate, p38δ; assay type: binding; conditions: 100 µM PROTAC, 51-55 °C, vs DMSO
T3 construct: endogenous in cells; host or cells: MDA-MB-231
T3 sequence (O15264 1-365): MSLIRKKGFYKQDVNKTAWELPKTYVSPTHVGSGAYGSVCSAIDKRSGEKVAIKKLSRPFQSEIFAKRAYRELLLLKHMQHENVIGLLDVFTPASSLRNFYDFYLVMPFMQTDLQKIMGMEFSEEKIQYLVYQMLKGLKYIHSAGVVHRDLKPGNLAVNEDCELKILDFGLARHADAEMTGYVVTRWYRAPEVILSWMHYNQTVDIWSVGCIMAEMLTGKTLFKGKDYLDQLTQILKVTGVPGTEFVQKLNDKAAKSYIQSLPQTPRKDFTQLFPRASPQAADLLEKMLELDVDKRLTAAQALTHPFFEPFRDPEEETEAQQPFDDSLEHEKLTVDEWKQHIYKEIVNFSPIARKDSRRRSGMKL
Method: CETSA protocol was adapted from[60]. In all, 3 × 10^7 MDA-MB-231 cells (1 × 10^7 cells per condition) were collected and resuspended in ice-cold 1X PBS supplemented with 1X protease inhibitor cocktail (Roche) and lysed by three cycles of liquid nitrogen snap freeze, followed by 50% thaw in a room temperature water bath and an additional 50% thaw at 4 °C. After each freeze–thaw cycle, lysate was vortexed briefly to ensure homogenous thawing. Lysate was then cleared for 20 min by centrifugation (14,000 × g at 4 °C) and the soluble fraction was divided into three equal aliquots. The aliquots were treated with vehicle (2.5% DMSO), 100 µM SJFα, or 100 µM SJFδ and incubated at room temperature for 30 min with gentle rotation. Each aliquot was then divided (50 µL) into eight PCR tubes and individually heated at the indicated temperature for 3 min followed by cooling at room temperature for 3 min. After cooling, samples were spun down for 20 min (14,000 × g at 4 °C) and the supernatant (soluble fraction) was analyzed by SDS-PAGE and immunoblotted for p38δ and alpha-tubulin (negative control).

p38δ [2] = molecular target: T3, p38δ; test: PROTAC washout assay, p38δ; assay type: cell-based; conditions: 250 nM PROTAC for 24 h, then re-plated in fresh medium
Method: as §1

FLAG-p38δ = molecular target: T4, FLAG-p38δ (Homo sapiens, UniProt O15264); test: TUBE1 immunoprecipitation of poly-Ub p38δ in HeLa cells; assay type: cell-based; conditions: 1 µM PROTAC, 3 hours
T4 construct: expressed in transfected cells; host or cells: HeLa
T4 sequence (O15264 1-365): T3 sequence (O15264 1-365)
Method: TUBE1 immunoprecipitation experiments were carried out exactly as described above, except for the fact that 1 mg of normalized HeLa lysate was loaded onto 20 µL TUBE1 agarose (LifeSensors) resin per sample.
WCL IP : TU B E 1 DMS SJF SJF
Supplementary Figure 7. SJFδ in d u ces p o lyu b iq u itin atio n o f p 38δ(related to F ig u re 4).
HeLa cells were co-transfected with HA-Ub and FLAG p38δ and treated with vehicle (DM SO ), 1 µM SJFα, or 1 µM SJFδ for 3 hours. Lysates were im m unoprecipitated with tandem ubiquitin binding entity (TUBE1) agarose beads and assessed by western blots detecting FLAG (p38δ).
TUBE1 binds tetra ubiquitin chains with high affinity, thereby enriching for polyubiquitinated proteins. In this assay, HA (Ub) serves as an im m unoprecipitation control for poly-Ub TUBE1 […]

T2 sequence (Q16539 whole entry): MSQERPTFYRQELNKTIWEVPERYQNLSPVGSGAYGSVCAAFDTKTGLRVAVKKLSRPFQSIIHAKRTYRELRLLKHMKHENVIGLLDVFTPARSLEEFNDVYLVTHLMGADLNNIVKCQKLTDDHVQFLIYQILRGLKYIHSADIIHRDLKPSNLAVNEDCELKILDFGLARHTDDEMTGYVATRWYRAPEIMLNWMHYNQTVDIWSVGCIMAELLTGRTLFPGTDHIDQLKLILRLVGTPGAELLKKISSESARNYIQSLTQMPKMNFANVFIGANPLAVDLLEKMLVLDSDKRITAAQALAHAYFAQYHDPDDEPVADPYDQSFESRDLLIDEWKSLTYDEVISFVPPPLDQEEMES
T1 sequence (Q16539 whole entry): as above

| time p38α degradation efficacy is maintained post-washout (p38α) | time p38δ degradation efficacy is maintained post-washout (p38δ [2]) | TUBE1-reactivity (poly-Ub p38δ) (FLAG-p38δ) | Compound | ubiquitination of FLAG-p38α (FLAG-p38α) | thermal shift in the p38δ melting profile (p38δ [1]) |
| --- | --- | --- | --- | --- | --- |
| 72 h | – | – | COc1cc2c(Oc3ccc(NC(=O)C4(C(=O)Nc5ccc(F)cc5)CC4)cc3F)ccnc2cc1OCCCCOCCCCOCC(=O)N[C@H](C(=O)N1C[C@H](O)C[C@H]1C(=O)NCc1ccc(-c2scnc2C)cc1)C(C)(C)C [SJFα] | substantial, high molecular weight (HMW) poly-Ub conjugation | small, but statistically significant |
| – | 24 h | increased TUBE1-reactivity | COc1cc2c(Oc3ccc(NC(=O)C4(C(=O)Nc5ccc(F)cc5)CC4)cc3F)ccnc2cc1OCCOCCOCCOc1cc(-c2scnc2C)ccc1CNC(=O)[C@@H]1C[C@@H](O)CN1C(=O)[C@H](C(C)C)N1Cc2ccccc2C1=O [SJFδ] | this effect was not seen | more pronounced at each melting temperature |
